US20250188076A1, “SOLID STATE FORMS OF TOLEBRUTINIB AND OF TOLEBRUTINIB SALTS” (TEVA PHARMACEUTICAL INTERNATIONAL GMBH, priority 2022, published 2025)

Assay: Solubility comparison in water and aqueous acetate buffer at pH 4.5

- solubility: < 200 µg/mL
Substance: Tolebrutinib [Tolebrutinib Form CSI]
